From patent publication US20190263796A1, “LIM KINASE INHIBITORS, PHARMACEUTICAL COMPOSITION AND METHOD OF USE IN LIMK-MEDIATED DISEASES” (CELLIPSE, priority 2016, published 2019) come the findings set out here.

The test system of one test is P-MEK/Total MEK. The experiment in a line: Western blot MEK1 phosphorylation, Kasumi-1. It counts as cell-based. The conditions noted are these: Kasumi-1 cells. As to the method: Cells were maintained at 37° C. with 5% CO2.
In a 6 wells plate (Falcon 353046), 2·10^6 cells in 1.5 mL medium are treated for 2 h with compounds. Cells are then collected and cell lysis is performed at 4° C. using RIPA buffer supplemented with protease inhibitors cocktail (Sigma-Aldrich P8340) and phosphatase inhibitors cocktail (Sigma-Aldrich P5726). Following centrifugation 30 min 15000 g 4° C., supernatants are mixed with Laemmli buffer and denaturation is performed by heating 5 min 95° C. 10 μL of samples are subjected to electrophoresis on 15% SDS-PAGE. After electro-transfer (Mini Transblot, Bio-Rad), the PVDF membrane (Merck-Millipore Immobilon P IPVH00010) is blocked with Tris Buffered Saline, pH 7.4 (TBS) with 0.1% Tween 20 and 5% BSA for 1 h at room temperature under agitation. The membrane was rinsed 3 times 10 min at room temperature under agitation with TBS, 0.1% Tween-20 (TBST) and then 1 h at room temperature with anti-phospho-Ser218/222-MEK1 (Merck-Millipore 07-461, 1/1000 dilution) antibody or anti-MEK1 (Merck-Millipore 07-641, 1/1000 dilution) diluted in TBS, 0.1% Tween 20 and 1% BSA. The membrane is then rinsed 3 times 10 min RT under agitation in TBST and incubated for 1 h with anti-rabbit secondary antibody, horseradish peroxidase conjugated (Jackson Immunoresearch #711-036-152) under agitation at room temperature. After three washes 10 min at room temperature in TBST, the detection of total or phosphorylated cofilin was performed using chemiluminescence kit ECL™ Plus (GE Healthcare RPN2132). For each concentration of compound, ratio between phosphorylated cofilin and total cofilin is determined. This ratio is then expressed as percentage of control ratio (i.e., ratio from DMSO treated cells). IC50 P-MEK/Total MEK is then determined.
Selectivity ratios are calculated by dividing the IC50 P-MEK/Total MEK value (μM) by the IC50 Phospho-Ser3-Cofilin/Total Cofilin value (μM).

In the next test the target is T1, FAK(h) (Homo sapiens, UniProt Q05397).
T1 construct: purchased Merck-Millipore (KinaseProfiler panel service)
The experiment in a line: KinaseProfiler panel: FAK(h). It counts as biochemical. The following applies: residual activity, 5 μM inhibitor, Km ATP. As to the method: (§1) Kinase selectivity was performed on a panel of 58 recombinant protein kinases. The assays were performed in the presence of 5 μM inhibitor at the respective Km ATP for each kinase, using the KinaseProfiler panel service (Merck-Millipore). Residual activity measured in the presence of […] inhibitor is expressed as the percent of activity determined in the absence of inhibitor.

In a further test the target is T2, PAK1(h) (Homo sapiens, UniProt Q13153).
T2 construct: purchased Merck-Millipore (KinaseProfiler panel service)
In words: KinaseProfiler panel: PAK1(h). The test is classed as biochemical. The following applies: residual activity, 5 μM inhibitor, Km ATP. On the procedure:
as §1

The target of a further test is T3, B-Raf(V599E)(h) (Homo sapiens, UniProt P15056, V600E).
T3 construct: purchased Merck-Millipore (KinaseProfiler panel service)
The experiment in a line: KinaseProfiler panel: B-Raf(V599E)(h). It counts as biochemical. The conditions noted are these: residual activity, 5 μM inhibitor, Km ATP. As to the method:
as §1

The target in the next test is T4, IGF-1R(h), activated (Homo sapiens, UniProt P08069).
T4 construct: purchased Merck-Millipore (KinaseProfiler panel service)
The experiment in a line: KinaseProfiler panel: IGF-1R(h), activated. The test is classed as biochemical. The following applies: residual activity, 5 μM inhibitor, Km ATP. On the procedure:
as §1

In a further test the target is T5, TAK1(h) (Homo sapiens, UniProt O43318).
T5 construct: purchased Merck-Millipore (KinaseProfiler panel service)
The experiment in a line: KinaseProfiler panel: TAK1(h). It counts as biochemical. The following applies: residual activity, 5 μM inhibitor, Km ATP. As to the method: as §1

A further test concerns the target T6, PAK6(h) (Homo sapiens, UniProt Q9NQU5).
T6 construct: purchased Merck-Millipore (KinaseProfiler panel service)
The experiment in a line: KinaseProfiler panel: PAK6(h). The following applies: residual activity, 5 μM inhibitor, Km ATP. The test is classed as biochemical. On the procedure: as §1

The next test concerns the target T7, Flt4(h) (Homo sapiens, UniProt P35916).
T7 construct: purchased Merck-Millipore (KinaseProfiler panel service)
The experiment in a line: KinaseProfiler panel: Flt4(h). The test is classed as biochemical. The conditions noted are these: residual activity, 5 μM inhibitor, Km ATP. As to the method: as §1

For the next test, the target named is T8, p70S6K(h) (Homo sapiens, UniProt P23443).
T8 construct: purchased Merck-Millipore (KinaseProfiler panel service)
The experiment in a line: KinaseProfiler panel: p70S6K(h). It counts as biochemical. The following applies: residual activity, 5 μM inhibitor, Km ATP. As to the method:
as §1

The target of the next test is T9, ROCK-I(h) (Homo sapiens, UniProt Q13464).
T9 construct: purchased Merck-Millipore (KinaseProfiler panel service)
In words: KinaseProfiler panel: ROCK-I(h). The following applies: residual activity, 5 μM inhibitor, Km ATP. The test is classed as biochemical. As to the method:
as §1

The target of test [1] is T10, PI3 Kinase (p110a(E542K)/p85a)(h) (Homo sapiens, UniProt P42336, E542K).
T10 construct: purchased Merck-Millipore (KinaseProfiler panel service)
The experiment in a line: KinaseProfiler panel: PI3 Kinase (p110a(E542K)/p85a)(h). It counts as biochemical. The conditions noted are these: residual activity, 5 μM inhibitor, Km ATP. On the procedure:
as §1

Another test concerns the target T11, EGFR(h) (Homo sapiens, UniProt P00533).
T11 construct: purchased Merck-Millipore (KinaseProfiler panel service)
In words: KinaseProfiler panel: EGFR(h). The test is classed as biochemical. The following applies: residual activity, 5 μM inhibitor, Km ATP. As to the method:
as §1

T10 sequence (P42336 whole entry E542K): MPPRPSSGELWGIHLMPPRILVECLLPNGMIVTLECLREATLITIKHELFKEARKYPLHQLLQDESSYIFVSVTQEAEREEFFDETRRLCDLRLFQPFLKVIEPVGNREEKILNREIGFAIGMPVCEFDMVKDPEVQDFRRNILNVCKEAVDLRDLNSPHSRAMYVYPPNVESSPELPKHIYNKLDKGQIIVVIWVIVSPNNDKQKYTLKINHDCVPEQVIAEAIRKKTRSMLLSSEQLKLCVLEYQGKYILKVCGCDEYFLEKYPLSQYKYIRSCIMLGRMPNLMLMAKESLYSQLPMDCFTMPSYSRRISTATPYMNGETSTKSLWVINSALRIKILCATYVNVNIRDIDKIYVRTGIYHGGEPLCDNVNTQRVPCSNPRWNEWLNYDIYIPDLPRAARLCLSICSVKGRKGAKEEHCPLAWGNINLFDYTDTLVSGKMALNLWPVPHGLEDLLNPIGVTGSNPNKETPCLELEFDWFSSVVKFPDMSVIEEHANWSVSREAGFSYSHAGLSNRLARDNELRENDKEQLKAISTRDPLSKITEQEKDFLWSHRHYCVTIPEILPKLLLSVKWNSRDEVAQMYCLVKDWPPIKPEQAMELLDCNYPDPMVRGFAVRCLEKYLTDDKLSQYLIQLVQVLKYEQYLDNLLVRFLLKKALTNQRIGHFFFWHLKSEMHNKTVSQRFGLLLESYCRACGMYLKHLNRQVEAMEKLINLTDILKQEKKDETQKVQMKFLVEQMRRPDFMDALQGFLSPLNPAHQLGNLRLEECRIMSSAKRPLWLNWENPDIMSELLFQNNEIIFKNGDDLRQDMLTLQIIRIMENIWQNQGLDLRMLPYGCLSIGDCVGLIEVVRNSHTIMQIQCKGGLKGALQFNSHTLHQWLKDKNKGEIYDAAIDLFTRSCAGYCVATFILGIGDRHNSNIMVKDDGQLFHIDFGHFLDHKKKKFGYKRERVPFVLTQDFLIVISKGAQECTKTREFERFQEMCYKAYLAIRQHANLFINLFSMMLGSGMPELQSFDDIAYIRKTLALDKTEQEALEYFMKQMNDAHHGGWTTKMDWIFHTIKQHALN
T10 sequence (P27986 whole entry partner): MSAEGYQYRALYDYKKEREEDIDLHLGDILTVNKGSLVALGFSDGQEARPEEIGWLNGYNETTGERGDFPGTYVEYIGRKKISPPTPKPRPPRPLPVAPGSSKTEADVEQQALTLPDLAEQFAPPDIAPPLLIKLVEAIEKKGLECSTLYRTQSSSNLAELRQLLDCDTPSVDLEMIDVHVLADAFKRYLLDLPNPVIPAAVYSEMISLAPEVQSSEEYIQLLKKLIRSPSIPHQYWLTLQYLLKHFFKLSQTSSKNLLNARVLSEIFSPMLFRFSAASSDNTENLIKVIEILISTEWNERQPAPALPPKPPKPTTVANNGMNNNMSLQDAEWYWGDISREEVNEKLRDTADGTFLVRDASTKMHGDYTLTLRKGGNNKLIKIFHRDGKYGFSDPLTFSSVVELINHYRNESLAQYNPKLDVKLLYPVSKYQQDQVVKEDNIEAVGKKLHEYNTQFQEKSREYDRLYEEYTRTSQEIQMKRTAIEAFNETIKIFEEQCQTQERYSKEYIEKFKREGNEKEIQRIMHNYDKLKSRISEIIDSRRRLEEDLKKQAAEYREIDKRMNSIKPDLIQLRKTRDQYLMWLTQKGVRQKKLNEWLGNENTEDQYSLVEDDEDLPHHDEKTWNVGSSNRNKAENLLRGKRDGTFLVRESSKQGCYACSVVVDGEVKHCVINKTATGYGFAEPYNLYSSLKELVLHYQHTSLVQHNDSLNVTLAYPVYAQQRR
T6 sequence (Q9NQU5 whole entry): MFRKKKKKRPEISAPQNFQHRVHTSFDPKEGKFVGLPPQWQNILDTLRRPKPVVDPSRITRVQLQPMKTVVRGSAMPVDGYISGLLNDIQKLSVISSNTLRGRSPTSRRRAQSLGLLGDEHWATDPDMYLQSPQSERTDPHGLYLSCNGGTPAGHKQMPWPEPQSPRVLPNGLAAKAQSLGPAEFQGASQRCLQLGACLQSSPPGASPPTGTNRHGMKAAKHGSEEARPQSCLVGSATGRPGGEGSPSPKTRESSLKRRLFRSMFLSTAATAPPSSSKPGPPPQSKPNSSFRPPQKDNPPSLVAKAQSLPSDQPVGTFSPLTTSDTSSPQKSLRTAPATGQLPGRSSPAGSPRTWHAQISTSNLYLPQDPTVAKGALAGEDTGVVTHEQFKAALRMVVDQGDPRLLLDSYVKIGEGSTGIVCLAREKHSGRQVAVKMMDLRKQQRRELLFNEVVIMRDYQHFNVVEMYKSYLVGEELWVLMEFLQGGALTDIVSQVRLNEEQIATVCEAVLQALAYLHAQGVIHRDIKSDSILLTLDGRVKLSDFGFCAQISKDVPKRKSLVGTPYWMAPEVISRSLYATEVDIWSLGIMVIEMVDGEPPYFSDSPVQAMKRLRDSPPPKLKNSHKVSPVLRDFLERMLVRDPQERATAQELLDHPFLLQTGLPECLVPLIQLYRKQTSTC
T9 sequence (Q13464 whole entry): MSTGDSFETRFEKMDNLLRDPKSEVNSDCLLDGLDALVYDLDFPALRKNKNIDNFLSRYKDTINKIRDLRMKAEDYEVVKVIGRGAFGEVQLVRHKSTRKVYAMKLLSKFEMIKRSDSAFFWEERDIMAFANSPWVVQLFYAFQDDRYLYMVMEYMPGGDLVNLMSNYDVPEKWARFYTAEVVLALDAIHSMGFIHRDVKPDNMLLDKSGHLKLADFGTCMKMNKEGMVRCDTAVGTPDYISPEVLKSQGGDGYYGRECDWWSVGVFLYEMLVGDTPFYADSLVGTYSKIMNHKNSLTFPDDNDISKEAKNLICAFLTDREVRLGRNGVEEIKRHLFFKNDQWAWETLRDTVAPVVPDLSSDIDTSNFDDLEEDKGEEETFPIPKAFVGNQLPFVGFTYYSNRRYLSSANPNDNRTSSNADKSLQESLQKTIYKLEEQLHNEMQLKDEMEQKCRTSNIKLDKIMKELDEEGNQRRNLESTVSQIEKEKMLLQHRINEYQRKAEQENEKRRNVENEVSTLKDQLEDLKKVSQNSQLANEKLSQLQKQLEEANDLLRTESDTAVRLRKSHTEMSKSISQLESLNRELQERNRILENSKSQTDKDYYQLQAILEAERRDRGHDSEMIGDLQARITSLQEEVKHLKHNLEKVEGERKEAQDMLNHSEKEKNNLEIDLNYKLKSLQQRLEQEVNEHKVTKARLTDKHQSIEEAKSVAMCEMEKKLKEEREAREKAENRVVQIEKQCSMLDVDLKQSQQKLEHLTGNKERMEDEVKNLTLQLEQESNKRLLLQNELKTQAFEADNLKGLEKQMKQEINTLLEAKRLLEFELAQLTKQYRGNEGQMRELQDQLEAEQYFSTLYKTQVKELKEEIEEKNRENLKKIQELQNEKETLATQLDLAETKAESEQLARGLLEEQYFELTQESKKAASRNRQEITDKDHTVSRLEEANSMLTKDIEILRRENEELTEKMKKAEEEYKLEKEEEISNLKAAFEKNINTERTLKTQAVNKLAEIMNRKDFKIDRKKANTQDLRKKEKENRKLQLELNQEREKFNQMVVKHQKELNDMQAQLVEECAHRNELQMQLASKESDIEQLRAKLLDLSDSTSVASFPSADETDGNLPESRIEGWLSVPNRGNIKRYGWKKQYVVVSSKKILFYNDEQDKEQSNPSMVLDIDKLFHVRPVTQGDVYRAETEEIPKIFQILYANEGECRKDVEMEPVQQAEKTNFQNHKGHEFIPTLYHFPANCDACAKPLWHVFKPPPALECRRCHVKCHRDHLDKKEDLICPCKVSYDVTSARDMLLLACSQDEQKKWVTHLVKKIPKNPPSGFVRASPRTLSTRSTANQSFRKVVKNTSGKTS
T1 sequence (Q05397 whole entry): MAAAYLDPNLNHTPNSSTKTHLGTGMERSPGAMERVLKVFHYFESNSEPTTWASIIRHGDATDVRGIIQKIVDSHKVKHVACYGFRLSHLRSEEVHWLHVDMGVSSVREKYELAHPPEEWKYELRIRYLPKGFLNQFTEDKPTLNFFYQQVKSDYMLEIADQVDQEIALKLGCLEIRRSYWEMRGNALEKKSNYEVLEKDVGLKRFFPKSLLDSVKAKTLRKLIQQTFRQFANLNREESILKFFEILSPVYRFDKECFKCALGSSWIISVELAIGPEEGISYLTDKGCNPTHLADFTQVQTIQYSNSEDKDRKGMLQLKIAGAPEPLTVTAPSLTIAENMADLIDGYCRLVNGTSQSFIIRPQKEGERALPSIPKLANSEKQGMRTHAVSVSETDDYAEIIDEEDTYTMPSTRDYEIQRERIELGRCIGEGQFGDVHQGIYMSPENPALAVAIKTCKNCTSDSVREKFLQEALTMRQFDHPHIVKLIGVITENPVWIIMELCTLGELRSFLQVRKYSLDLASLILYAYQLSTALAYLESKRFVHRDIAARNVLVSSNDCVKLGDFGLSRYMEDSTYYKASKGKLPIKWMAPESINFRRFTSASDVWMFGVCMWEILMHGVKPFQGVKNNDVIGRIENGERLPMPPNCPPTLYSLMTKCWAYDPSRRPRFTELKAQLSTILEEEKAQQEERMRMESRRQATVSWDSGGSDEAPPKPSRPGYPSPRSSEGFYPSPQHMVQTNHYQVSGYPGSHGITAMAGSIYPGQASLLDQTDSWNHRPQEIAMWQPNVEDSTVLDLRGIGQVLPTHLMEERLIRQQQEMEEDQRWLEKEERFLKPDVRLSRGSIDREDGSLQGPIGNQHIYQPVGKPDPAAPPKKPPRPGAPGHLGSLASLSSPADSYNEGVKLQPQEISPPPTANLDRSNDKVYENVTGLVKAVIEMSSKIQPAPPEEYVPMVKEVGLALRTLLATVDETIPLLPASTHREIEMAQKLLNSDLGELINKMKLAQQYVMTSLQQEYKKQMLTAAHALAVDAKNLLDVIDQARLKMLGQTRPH

With `O=S(=O)(Nc1cccc(-c2nc(CCO)sc2-c2ccnc(Nc3ccccc3)n2)c1F)c1c(F)cccc1F` [8 (Na)], the IC50 in the test on P-MEK/Total MEK (Homo sapiens, 2 h, read-out: IC50 P-MEK/Total MEK) was > 1 µM. Moreover, the Selectivity ratio in the test with P-MEK/Total MEK (IC50 P-MEK/Total MEK divided by IC50 Phospho-Ser3-Cofilin/Total Cofilin) was found to be 10.

As for `CC(C)(C)c1nc(-c2cccc(NS(=O)(=O)c3c(F)cccc3F)c2F)c(-c2ccnc(Nc3ccccc3)n2)s1` [Compound 1, N-(3-(2-(tert-butyl)-5-(2-(phenylamino)pyrimidin-4-yl)thiazol-4-yl)-2-fluorophenyl)-2,6-difluorobenzenesulfonamide], the activity at 5 µM on FAK(h) is ≥ 50%; on PAK1(h), ≥ 50%; on B-Raf(V599E)(h), 3 to 10%; at IGF-1R(h), activated it was ≥ 50%; at TAK1(h) it was ≥ 50%; at PAK6(h), ≥ 50%. The activity at 5 µM on Flt4(h) was 3 to 10%; on p70S6K(h), ≥ 50%; at ROCK-I(h), ≥ 50%; in test [1] it was ≥ 50%; on EGFR(h) it was ≥ 50%.
